Consider 6 molecules from patent publication US10206394B2, “Herbicidal compounds” (Syngenta Participations AG, priority 2014, dated 2019).

Common to all, as to assay: Glasshouse assay for herbicidal activity (pre- and post-emergence), percentage phytotoxicity
Common to all, as to format: in vivo

Assay [1] concerns Alopecurus myosuroides (ALOMY). As to conditions: Alopecurus myosuroides. Here is the method:
(§1) Test—Glasshouse Assay for Herbicidal Activity
(§2) Seeds of a variety of monocotyledonous and dicotyledonous test plants are sown in standard soil in pots. The plants are cultivated for one day (for pre-emergence (PRE)) or for about 12 days (for post-emergence (POST)) under controlled conditions in a glasshouse (warm climate species at 24/18° C., cool climate species at 20/16° C., both at day/night; 16 hours light; 65% humidity).
(§3) The test plants are then grown on, in a glasshouse (greenhouse) under controlled conditions (warm climate species at 24/18° C., cool climate species at 20/16° C., both at day/night; 16 hours light; 65% humidity) and are watered twice daily. 15 days after application of the test herbicide (15 DAA) (for post-emergence), and 20 days after application of the test herbicide (20 DAA) (for pre-emergence), the test plants are evaluated visually, and an assessed percentage phytotoxicity score is given for each herbicidal application on each plant species (with 100%=total damage to plant; 0%=no damage to plant).
(§4) The plant species tested are as follows: Alopecurus myosuroides (ALOMY), Avena fatua (AVEFA), Lolium perenne (LOLPE), Echinochloa crus-galli (ECHCG).

A further assay relates to Lolium perenne (LOLPE). The note with it: Lolium perenne. How it is done: as §1, §2, §3, §4
The test system of assay [2] is Echinochloa crus-galli (ECHCG). The note with it: Echinochloa crus-galli. How it is done:
as §1, §2, §3, §4

In a further assay the test system is Avena fatua (AVEFA). As to conditions: Avena fatua. Here is the method:
as §1, §2, §3, §4

Setting [3] is: post-emergence, 360 h, Rate 250 g/ha, post-emergence, visual assessment 15 DAA, 100%=total damage, 0%=no damage, read-out: Post-emergence herbicidal activity (percentage phytotoxicity) ALOMY POST.
The mark [4] stands for this setting: pre-emergence, 480 h, Rate 250 g/ha, pre-emergence, visual assessment 20 DAA, 100%=total damage, 0%=no damage, read-out: Pre-emergence herbicidal activity (percentage phytotoxicity) ALOMY PRE.
Where [5] appears, read: post-emergence, 360 h, Rate 250 g/ha, post-emergence, visual assessment 15 DAA, 100%=total damage, 0%=no damage, read-out: Post-emergence herbicidal activity (percentage phytotoxicity) LOLPE POST.
Setting [6] is: pre-emergence, 480 h, Rate 250 g/ha, pre-emergence, visual assessment 20 DAA, 100%=total damage, 0%=no damage, read-out: Pre-emergence herbicidal activity (percentage phytotoxicity) LOLPE PRE.
[7] abbreviates: post-emergence, 360 h, Rate 250 g/ha, post-emergence, visual assessment 15 DAA, 100%=total damage, 0%=no damage, read-out: Post-emergence herbicidal activity (percentage phytotoxicity) ECHCG POST.
The mark [8] stands for this setting: pre-emergence, 480 h, Rate 250 g/ha, pre-emergence, visual assessment 20 DAA, 100%=total damage, 0%=no damage, read-out: Pre-emergence herbicidal activity (percentage phytotoxicity) ECHCG PRE.
The mark [9] stands for this setting: post-emergence, 360 h, Rate 250 g/ha, post-emergence, visual assessment 15 DAA, 100%=total damage, 0%=no damage, read-out: Post-emergence herbicidal activity (percentage phytotoxicity) AVEFA POST.
[10] abbreviates: pre-emergence, 480 h, Rate 250 g/ha, pre-emergence, visual assessment 20 DAA, 100%=total damage, 0%=no damage, read-out: Pre-emergence herbicidal activity (percentage phytotoxicity) AVEFA PRE.
[11] abbreviates: post-emergence, 360 h, Rate 250 g/ha, post-emergence, assessed visually 15 DAA, 100%=total damage, 0%=no damage, read-out: Post-emergence herbicidal activity (percentage phytotoxicity) ALOMY POST.
[12] abbreviates: pre-emergence, 480 h, Rate 250 g/ha, pre-emergence, assessed visually 20 DAA, 100%=total damage, 0%=no damage, read-out: Pre-emergence herbicidal activity (percentage phytotoxicity) ALOMY PRE.
[13] abbreviates: post-emergence, 360 h, Rate 250 g/ha, post-emergence, assessed visually 15 DAA, 100%=total damage, 0%=no damage, read-out: Post-emergence herbicidal activity (percentage phytotoxicity) LOLPE POST.
Where [14] appears, read: pre-emergence, 480 h, Rate 250 g/ha, pre-emergence, assessed visually 20 DAA, 100%=total damage, 0%=no damage, read-out: Pre-emergence herbicidal activity (percentage phytotoxicity) LOLPE PRE.
The mark [15] stands for this setting: post-emergence, 360 h, Rate 250 g/ha, post-emergence, assessed visually 15 DAA, 100%=total damage, 0%=no damage, read-out: Post-emergence herbicidal activity (percentage phytotoxicity) ECHCG POST.
Where [16] appears, read: pre-emergence, 480 h, Rate 250 g/ha, pre-emergence, assessed visually 20 DAA, 100%=total damage, 0%=no damage, read-out: Pre-emergence herbicidal activity (percentage phytotoxicity) ECHCG PRE.
Where [17] appears, read: post-emergence, 360 h, Rate 250 g/ha, post-emergence, assessed visually 15 DAA, 100%=total damage, 0%=no damage, read-out: Post-emergence herbicidal activity (percentage phytotoxicity) AVEFA POST.
[18] abbreviates: pre-emergence, 480 h, Rate 250 g/ha, pre-emergence, assessed visually 20 DAA, 100%=total damage, 0%=no damage, read-out: Pre-emergence herbicidal activity (percentage phytotoxicity) AVEFA PRE.

Where two headings read alike, the source gives them in different places.

As for `Cc1cc(C)c(C2=C(OC(=O)C(C)(C)C)CC(CC(N)=O)C2=O)c(C)c1` (stereo not drawn) [Compound P11], the pest or weed control at 250 g/ha was 80% in assay [1] (setting [3]); 70% in assay [1] (setting [4]); 90% in the assay on Lolium perenne (LOLPE) (setting [5]); 80% in the assay with Lolium perenne (LOLPE) (setting [6]); 90% in assay [2] (setting [7]); 90% in assay [2] (setting [8]). For the same molecule, the results for the pest or weed control at 250 g/ha in the assay with Avena fatua (AVEFA) (setting [9]) and with Avena fatua (AVEFA) (setting [10]) were 90% and 30%, respectively.

For the molecule `Cc1cc(-c2ccc(C#N)cc2)cc(C)c1C1C(=O)CC(CC(=O)NC(C)C)C1=O` (stereo not drawn) [Compound A37], the pest or weed control at 250 g/ha in assay [1] (setting [11]) stood at 80%; in assay [1] (setting [12]) it was 90%; in the assay with Lolium perenne (LOLPE) (setting [13]), 80%; with Lolium perenne (LOLPE) (setting [14]), 100%; in assay [2] (setting [15]) it was 90%; in assay [2] (setting [16]), 100%. For the same molecule, the pest or weed control at 250 g/ha is 100% in the assay with Avena fatua (AVEFA) (setting [17]) and 90% in the assay with Avena fatua (AVEFA) (setting [18]).

For the molecule `Cc1cc(-c2ncc(Cl)cn2)cc(C)c1C1=C(OC(=O)c2ccc(F)cc2)CC(CC(=O)NC(C)(C)C)C1=O` (stereo not drawn) [Compound P2], the pest or weed control at 250 g/ha in assay [1] (post-emergence, 360 h, post-emergence, 250 g/ha, 15 DAA, visual score (100%=total damage; 0%=no damage), read-out: ALOMY POST herbicidal activity (percentage phytotoxicity)) is 100%; in assay [1] (pre-emergence, 480 h, pre-emergence, 250 g/ha, 20 DAA, visual score (100%=total damage; 0%=no damage), read-out: ALOMY PRE herbicidal activity (percentage phytotoxicity)) it was 90%; with Lolium perenne (LOLPE) (post-emergence, 360 h, post-emergence, 250 g/ha, 15 DAA, visual score (100%=total damage; 0%=no damage), read-out: LOLPE POST herbicidal activity (percentage phytotoxicity)), 100%; with Lolium perenne (LOLPE) (pre-emergence, 480 h, pre-emergence, 250 g/ha, 20 DAA, visual score (100%=total damage; 0%=no damage), read-out: LOLPE PRE herbicidal activity (percentage phytotoxicity)), 100%; in assay [2] (post-emergence, 360 h, post-emergence, 250 g/ha, 15 DAA, visual score (100%=total damage; 0%=no damage), read-out: ECHCG POST herbicidal activity (percentage phytotoxicity)) it was 100%; in assay [2] (pre-emergence, 480 h, pre-emergence, 250 g/ha, 20 DAA, visual score (100%=total damage; 0%=no damage), read-out: ECHCG PRE herbicidal activity (percentage phytotoxicity)) it was 100%. Further, the pest or weed control at 250 g/ha came out at 100% in the assay on Avena fatua (AVEFA) (post-emergence, 360 h, post-emergence, 250 g/ha, 15 DAA, visual score (100%=total damage; 0%=no damage), read-out: AVEFA POST herbicidal activity (percentage phytotoxicity)) and 90% with Avena fatua (AVEFA) (pre-emergence, 480 h, pre-emergence, 250 g/ha, 20 DAA, visual score (100%=total damage; 0%=no damage), read-out: AVEFA PRE herbicidal activity (percentage phytotoxicity)).

Consider `Cc1cc(-c2ncc(Cl)cc2F)cc(C)c1C1C(=O)CC(CC(=O)NC/C=C/Cl)C1=O` (stereo not drawn) [Compound B162], for which the pest or weed control at 250 g/ha in assay [1] (post-emergence, 360 h, 250 g/ha, post-emergence, 15 DAA, visual assessment (100%=total damage, 0%=no damage), read-out: Post-emergence herbicidal activity (percentage phytotoxicity) ALOMY POST) was 100%; in assay [1] (pre-emergence, 480 h, 250 g/ha, pre-emergence, 20 DAA, visual assessment (100%=total damage, 0%=no damage), read-out: Pre-emergence herbicidal activity (percentage phytotoxicity) ALOMY PRE), 100%; in the assay with Lolium perenne (LOLPE) (post-emergence, 360 h, 250 g/ha, post-emergence, 15 DAA, visual assessment (100%=total damage, 0%=no damage), read-out: Post-emergence herbicidal activity (percentage phytotoxicity) LOLPE POST), 100%; in the assay on Lolium perenne (LOLPE) (pre-emergence, 480 h, 250 g/ha, pre-emergence, 20 DAA, visual assessment (100%=total damage, 0%=no damage), read-out: Pre-emergence herbicidal activity (percentage phytotoxicity) LOLPE PRE), 100%; in assay [2] (post-emergence, 360 h, 250 g/ha, post-emergence, 15 DAA, visual assessment (100%=total damage, 0%=no damage), read-out: Post-emergence herbicidal activity (percentage phytotoxicity) ECHCG POST), 100%; in assay [2] (pre-emergence, 480 h, 250 g/ha, pre-emergence, 20 DAA, visual assessment (100%=total damage, 0%=no damage), read-out: Pre-emergence herbicidal activity (percentage phytotoxicity) ECHCG PRE), 100%. For the same molecule, the pest or weed control at 250 g/ha with Avena fatua (AVEFA) (post-emergence, 360 h, 250 g/ha, post-emergence, 15 DAA, visual assessment (100%=total damage, 0%=no damage), read-out: Post-emergence herbicidal activity (percentage phytotoxicity) AVEFA POST) stood at 100%; with Avena fatua (AVEFA) (pre-emergence, 480 h, 250 g/ha, pre-emergence, 20 DAA, visual assessment (100%=total damage, 0%=no damage), read-out: Pre-emergence herbicidal activity (percentage phytotoxicity) AVEFA PRE), 90%.

As for `Cc1cc(-c2ccc(F)cn2)cc(C)c1C1C(=O)CC(CC(=O)NC(C)C)C1=O` (stereo not drawn) [Compound B385], the pest or weed control at 250 g/ha (in assay [1] (setting [3]); in assay [1] (setting [4]); in the assay with Lolium perenne (LOLPE) (setting [5]); with Lolium perenne (LOLPE) (setting [6]); in assay [2] (setting [7]); in assay [2] (setting [8])) was 100% in each case. Moreover, the pest or weed control at 250 g/ha in the assay with Avena fatua (AVEFA) (setting [9]) and with Avena fatua (AVEFA) (setting [10]) was 100% each time.

Take `COc1ccccc1CNC(=O)CC1CC(=O)C(c2c(C)cc(C)cc2C)C1=O` (stereo not drawn) [Compound A90]: the pest or weed control at 250 g/ha in assay [1] (setting [11]) is 0%; in assay [1] (setting [12]), 0%; with Lolium perenne (LOLPE) (setting [13]), 70%; in the assay on Lolium perenne (LOLPE) (setting [14]), 60%; in assay [2] (setting [15]), 80%; in assay [2] (setting [16]), 40%. In addition, the pest or weed control at 250 g/ha with Avena fatua (AVEFA) (setting [17]) and in the assay on Avena fatua (AVEFA) (setting [18]) was 0% each time.
